This assay has as its system MDA-MB-231 complex spheroid viability. As to the kind of experiment: Anticancer human tumor MDA-MB-231/ATCC cell line growth inhibition.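 For all read-outs here: drug exposure lasted 7 days starting on day 3 of spheroid growth.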 Conditions: for viability, T/C: stronger effect = lower value. Put shortly:
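Multicellular complex spheroids of tumor cells with human endothelial cells (HUVEC) and mesenchymal stem cells; the LSD1 inhibitor iadademstat was combined with standard-of-care or investigational agents. Top concentration at or near clinical Cmax, half-log dilutions; final DMSO ≤0.25%.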

[1] abbreviates: curve of first compound, second compound 0.1 µM.
Setting [2] is: curve of first compound, second compound 0.316 µM.
[3] abbreviates: curve of first compound, second compound 1 µM.
The mark [4] stands for this setting: curve of first compound, second compound 3.16 µM.
[5] abbreviates: curve of first compound, second compound 10 µM.
The mark [6] stands for this setting: second compound 0.1 µM, first compound 0.00949 µM.
[7] abbreviates: second compound 0.1 µM, first compound 0.03 µM.
Setting [8] is: second compound 0.1 µM, first compound 0.0949 µM.
The mark [9] stands for this setting: second compound 0.1 µM, first compound 0.3 µM.
The mark [10] stands for this setting: second compound 0.316 µM, first compound 0.00949 µM.
[11] abbreviates: second compound 0.316 µM, first compound 0.03 µM.
Setting [12] is: second compound 0.316 µM, first compound 0.0949 µM.
Where [13] appears, read: second compound 0.316 µM, first compound 0.3 µM.
The mark [14] stands for this setting: second compound 1 µM, first compound 0.00949 µM.
[15] abbreviates: second compound 1 µM, first compound 0.03 µM.
The mark [16] stands for this setting: second compound 1 µM, first compound 0.0949 µM.
Setting [17] is: second compound 1 µM, first compound 0.3 µM.
[18] abbreviates: second compound 3.16 µM, first compound 0.00949 µM.
The mark [19] stands for this setting: second compound 3.16 µM, first compound 0.03 µM.
Setting [20] is: second compound 3.16 µM, first compound 0.0949 µM.
The mark [21] stands for this setting: second compound 3.16 µM, first compound 0.3 µM.
Where [22] appears, read: second compound 10 µM, first compound 0.00949 µM.
The mark [23] stands for this setting: second compound 10 µM, first compound 0.03 µM.
Setting [24] is: second compound 10 µM, first compound 0.0949 µM.
Setting [25] is: second compound 10 µM, first compound 0.3 µM.

Where “and” joins values, the source holds several entries; their conditions need not be identical. Equal values may be shown once.

As to `CC1COCCN1c1cc(-c2ccnn2C)c2ccnc(-c3ccn[nH]3)c2n1` (centres undefined) + NC1CCC(NC2CC2c2ccccc2)CC1, the concentration for half-maximal inhibition (IC50) runs as follows: under setting [1], 31.1 nM; under setting [2], 34.3 nM; under setting [3], 25.7 nM; under setting [4], 16.5 nM; under setting [5], 10.7 nM. Also, the viability, T/C is, setting by setting: (second compound 0.1 µM, first compound 0.00316 µM) 102%; (second compound 0.1 µM, first compound 0.01 µM) 77.8%; (second compound 0.1 µM, first compound 0.0316 µM) 50.4%; (second compound 0.1 µM, first compound 0.1 µM) 33.3%; (second compound 0.1 µM, first compound 0.316 µM) 28.4%; (second compound 0.1 µM, first compound 1 µM) 28.8%. Besides, the viability, T/C runs as follows: (second compound 0.316 µM, first compound 0.00316 µM) 93.7%; (second compound 0.316 µM, first compound 0.01 µM) 73.8%; (second compound 0.316 µM, first compound 0.0316 µM) 50.7%; (second compound 0.316 µM, first compound 0.1 µM) 37.4%; (second compound 0.316 µM, first compound 0.316 µM) 29.3%; (second compound 0.316 µM, first compound 1 µM) 28.9%. Moreover, the viability, T/C is, setting by setting: (second compound 1 µM, first compound 0.00316 µM) 90%; (second compound 1 µM, first compound 0.01 µM) 69.4%; (second compound 1 µM, first compound 0.0316 µM) 45.8%; (second compound 1 µM, first compound 0.1 µM) 34.5%; (second compound 1 µM, first compound 0.316 µM) 27.4%; (second compound 1 µM, first compound 1 µM) 30.7%. Moreover, the viability, T/C reads like this: (second compound 3.16 µM, first compound 0.00316 µM) 72.8%; (second compound 3.16 µM, first compound 0.01 µM) 57.4%; (second compound 3.16 µM, first compound 0.0316 µM) 40.2%; (second compound 3.16 µM, first compound 0.1 µM) 33%; (second compound 3.16 µM, first compound 0.316 µM) 29.3%; (second compound 3.16 µM, first compound 1 µM) 30.7%. Moreover, the viability, T/C was 56.9% (second compound 10 µM, first compound 0.00316 µM); 51% (second compound 10 µM, first compound 0.01 µM); 32.8% (second compound 10 µM, first compound 0.0316 µM); 30% (second compound 10 µM, first compound 0.1 µM); 28% (second compound 10 µM, first compound 0.316 µM); 28.9% (second compound 10 µM, first compound 1 µM).
`Cn1ncnc1C1c2n[nH]c(=O)c3cc(F)cc(c23)NC1c1ccc(F)cc1` (centres undefined): the viability, T/C (compound 0.000316 µM) was 91% and 96.8%; the viability, T/C (compound 0.001 µM) was 95.8% and 101%; the viability, T/C (compound 0.00316 µM) is 84.4% and 94.8%; the viability, T/C (compound 0.01 µM) is 85.8% and 78.8%; the viability, T/C (compound 0.0316 µM) was 78.8% and 65.3%; the viability, T/C (compound 0.1 µM) is 74.7% and 72.4%. Moreover, the half-inhibitory concentration (IC50) (curve of compound) is over 100 nM.
Regarding `COc1cc(C2c3cc4c(cc3C(OC3OC5COC(C)OC5C(O)C3O)C3COC(=O)C23)OCO4)cc(OC)c1O` (centres undefined) + NC1CC1c1ccc(-c2cccc(O)c2)cc1, the IC50 is 22.6 nM under setting [1]; 13.4 nM under setting [2]; 15.4 nM under setting [3]; under 9.49 nM under setting [4]; under 9.49 nM under setting [5]. Besides, the viability, T/C is, setting by setting: under setting [6], 67.5%; under setting [7], 43.7%; under setting [8], 28.4%; under setting [9], 25.9%; (second compound 0.1 µM, first compound 0.949 µM) 15.5%; (second compound 0.1 µM, first compound 3 µM) 12%. Further, the viability, T/C by setting is: under setting [10], 55%; under setting [11], 38.7%; under setting [12], 27.1%; under setting [13], 20.5%; (second compound 0.316 µM, first compound 0.949 µM) 14.2%; (second compound 0.316 µM, first compound 3 µM) 11.3%. Besides, the viability, T/C under setting [14] is 56.7%; the viability, T/C under setting [15] is 41.7%; the viability, T/C under setting [16] was 24.9%; the viability, T/C under setting [17] is 23%; the viability, T/C (second compound 1 µM, first compound 0.949 µM) is 14%; the viability, T/C (second compound 1 µM, first compound 3 µM) was 11.9%. Also, the viability, T/C under setting [18] was 48.6%; the viability, T/C under setting [19] was 32.3%; the viability, T/C under setting [20] is 23.5%; the viability, T/C under setting [21] was 20.3%; the viability, T/C (second compound 3.16 µM, first compound 0.949 µM) is 14.7%; the viability, T/C (second compound 3.16 µM, first compound 3 µM) was 11.7%. Further, the viability, T/C is, setting by setting: under setting [22], 38.2%; under setting [23], 25.5%; under setting [24], 24.9%; under setting [25], 20.1%; (second compound 10 µM, first compound 0.949 µM) 11.6%; (second compound 10 µM, first compound 3 µM) 10%.
On to `Nc1ccn(C2OC(CO)C(O)C2(F)F)c(=O)n1` (centres undefined) + NC1CCC(NC2CC2c2ccccc2)CC1, for which the IC50 was under 0.949 nM under setting [1]; under 0.949 nM under setting [2]; under 0.949 nM under setting [3]; under 0.949 nM under setting [4]; under 0.949 nM under setting [5]. In addition, the viability, T/C was 23.4% (second compound 0.1 µM, first compound 0.000949 µM); 18.9% (second compound 0.1 µM, first compound 0.003 µM); 17.4% under setting [6]; 15.9% under setting [7]; 8.32% under setting [8]; 6.14% under setting [9]. Besides, the viability, T/C by setting is: (second compound 0.316 µM, first compound 0.000949 µM) 24.3%; (second compound 0.316 µM, first compound 0.003 µM) 19.6%; under setting [10], 19%; under setting [11], 16%; under setting [12], 8.93%; under setting [13], 6.74%. Moreover, the viability, T/C by setting is: (second compound 1 µM, first compound 0.000949 µM) 22.2%; (second compound 1 µM, first compound 0.003 µM) 17.9%; under setting [14], 18.2%; under setting [15], 13.6%; under setting [16], 8.49%; under setting [17], 7.33%. The viability, T/C runs as follows: (second compound 3.16 µM, first compound 0.000949 µM) 23.7%; (second compound 3.16 µM, first compound 0.003 µM) 18.9%; under setting [18], 17.2%; under setting [19], 12.8%; under setting [20], 9.01%; under setting [21], 6.68%. For the same compound, the viability, T/C (second compound 10 µM, first compound 0.000949 µM) is 19.2%; the viability, T/C (second compound 10 µM, first compound 0.003 µM) was 19.2%; the viability, T/C under setting [22] is 14.4%; the viability, T/C under setting [23] was 10.3%; the viability, T/C under setting [24] was 6.87%; the viability, T/C under setting [25] is 5.84%.
With `CC1COCCN1c1cc(C2(S(C)(=N)=O)CC2)nc(-c2ccnc3[nH]ccc23)n1` (centres undefined), the viability, T/C (compound 0.0316 µM) is 105% and 111%; the viability, T/C (compound 0.1 µM) is 98.6% and 111%; the viability, T/C (compound 0.316 µM) was 79.9% and 109%; the viability, T/C (compound 1 µM) was 53.7% and 62%; the viability, T/C (compound 3.16 µM) is 36.3% and 31.3%; the viability, T/C (compound 10 µM) is 28.1% and 24%. Further, the IC50 (curve of compound) is 1280 nM and 1530 nM.
Take `CC(C)c1c(-c2ccccc2)nc2c(C#N)c[nH]n2c1=O`: the viability, T/C was 101% and 102% (compound 0.0316 µM); 94.7% and 104% (compound 0.1 µM); 97.9% and 117% (compound 0.316 µM); 106% and 112% (compound 1 µM); 108% and 121% (compound 3.16 µM); 102% and 113% (compound 10 µM). In addition, where the note is “curve of compound”, the concentration for half-maximal inhibition (IC50) was over 10000 nM.
With `CC[C@@]1(O)C(=O)OCc2c1cc1n(c2=O)Cc2cc3c(CN(C)C)c(O)ccc3nc2-1`, the viability, T/C by setting is: (compound 0.000316 µM) 89.7% and 88.6%; (compound 0.001 µM) 64.9% and 65.5%; (compound 0.00316 µM) 39.1% and 39.5%; (compound 0.01 µM) 25.3% and 25.9%; (compound 0.0316 µM) 17.1% and 22.8%; (compound 0.1 µM) 10.3% and 16%. Further, the IC50 (curve of compound) was 1.99 nM and 2.01 nM.
For `CC(C)CC(NC(=O)C(Cc1ccccc1)NC(=O)c1cnccn1)B(O)O` (centres undefined), the viability, T/C is 104% and 34.9% (compound 0.000316 µM); 1.86% and 0.16% (compound 0.00316 µM); 0.35% and 0.17% (compound 0.01 µM); 0.31% and 0.14% (compound 0.0316 µM); 0.31% and 0.17% (compound 0.1 µM). Besides, the IC50 (curve of compound) is 1.09 nM and < 0.316 nM.

For the origin of these results see PubChem BioAssay AID1918953 (Molecular Pharmacology Branch, DTP, NCI, 2023).
